Results as given in US10124012B2, “Method for treatment of hyperglycemia and hyperlipidemia” (priority 2016, dated 2018).

Tests used:
Type in all cases: in vivo, C57BL/6J mice
[1] = test system: SREBP2; test: Liver mRNA by semi-quantitative RT-PCR: SREBP2; conditions: HFD-fed mice, oral gavage once daily 4 weeks, AnK 10, 20, 40, Feno 250, Metf 300 mg/kg/day, vs HF group
Source text: (§1) The 4-week old male C57BL/6J mice (total amount n=63) were obtained from the National Laboratory Animal Center (Taipei, Taiwan). After acclimatization for one week, all of the mice were randomly assigned into a control (CON) group and a high-fat diet (HFD) group. […] After HFD feeding for 8 weeks, the HFD group was randomly subdivided into six groups (n=9 per group) receiving different treatments and fed on HFD. […] The HF+AnK1, HF+AnK2, and HF+AnK3 groups are collectively termed AnK-treated HFD groups in the following examples. The CON mice were administered vehicle. All treatments were administered via oral gavage once daily. After administration for 4 weeks, all mice were fasted 12 hours, and blood was collected from the retro-orbital sinus under ether anesthesia. […]
(§2) Total RNA from liver tissue of mice was isolated with a Trizol Reagent (Molecular Research Center, Inc., Cincinnati, Ohio, USA) according to the manufacturer's instructions. The integrity of the extracted total RNA was examined by 2% agarose gel electrophoresis, and the RNA concentration was determined by the ultraviolet (UV) light absorbency at 260 nm and 280 nm (Spectrophotometer U-2800A, Hitachi). […]
(§3) Levels of mRNA of target genes were quantified by semi-quantitative reverse transcription polymerase chain reaction (RT-PCR). […] PCR products were analyzed by 2% agarose gel and stained with ethidium bromide.

[2] = test system: aP2; test: Liver mRNA by semi-quantitative RT-PCR: aP2; conditions: HFD-fed mice, oral gavage once daily 4 weeks, AnK 10, 20, 40, Feno 250, Metf 300 mg/kg/day, vs HF group
Source text: as §1, §2, §3

[3] = test system: SREBP1c; test: Liver mRNA by semi-quantitative RT-PCR: SREBP1c; conditions: HFD-fed mice, oral gavage once daily 4 weeks, AnK 10, 20, 40, Feno 250, Metf 300 mg/kg/day, vs HF group
Source text: as §1, §2, §3

[4] = test system: phospho-AMPK (Thr^172)/total-AMPK; test: Western blotting of phospho-AMPK/total-AMPK in skeletal muscle and liver; conditions: HFD-induced reduction, AnK 10, 20, 40, Feno 250, Metf 300 mg/kg/day, vs HF group
Source text: The 4-week old male C57BL/6J mice (total amount n=63) were obtained from the National Laboratory Animal Center (Taipei, Taiwan). After acclimatization for one week, all of the mice were randomly assigned into a control (CON) group and a high-fat diet (HFD) group. […] After HFD feeding for 8 weeks, the HFD group was randomly subdivided into six groups (n=9 per group) receiving different treatments and fed on HFD. […] The HF+AnK1, HF+AnK2, and HF+AnK3 groups are collectively termed AnK-treated HFD groups in the following examples. The CON mice were administered vehicle. All treatments were administered via oral gavage once daily. After administration for 4 weeks, all mice were fasted 12 hours, and blood was collected from the retro-orbital sinus under ether anesthesia. At the end of the experiment, the mice were sacrificed via carbon dioxide inhalation. Liver, adipose tissue, and skeletal muscle were collected and immediately stored at −80° C. for target gene analysis.
About 0.1 g of liver tissue, skeletal muscle, or adipose tissue was used for the homogenate samples. Samples were powdered under liquid nitrogen and homogenized for 20 seconds in 500 μL buffer containing 20 mM Tris-HCl (pH 7.4 at 4° C.), 2% SDS, 5 mM EDTA, 5 mM EGTA, 1 mM dithiothreitol (DTT), 100 mM NaF, 2 mM sodium vanadate, 0.5 mM phenylmethylsulfonyl fluoride, 10 μg/mL leupeptin, and 10 μL/mL pepstatin. The total membrane fraction was used for measurement. The protein concentration in supernatant was determined with a BCA protein assay kit (Thermo Scientific, Rockford, Ill., USA). […] The membrane was blocked with 5% slim milk in Tris-buffered saline (TBS)(Amersham BioSciences, Uppsala, Sweden) containing 0.05% Tween-20 (Bio Rad, CA, USA) and incubated overnight at 4° C. with antibodies at 1:200 dilution. Subsequently, the membrane was washed three times with TBS containing 0.05% Tween-20 and incubated with secondary antibody anti-rabbit (1:1000)(Jackson ImmunoResearch Laboratories, Inc., PA, USA) for 1 hour. Immunoreactive bands were detected with ECL reagent kit (GE Healthcare BioSciences, Buckinghamshire, UK). The intensity of Western blot signals was analyzed using AlphaEase FC software (Alpha Innotech Corporation, Randburg, South Africa). The structural protein GAPDH in the samples was used as the loading control.

[5] = test system: high-fat diet-fed C57BL/6J mouse; test: Blood glucose levels and biochemical parameters in HFD-fed mice; conditions: for blood glucose levels: fasting, week 12, oral gavage once daily 4 weeks; for blood glucose levels / blood adiponectin levels / circulating free fatty acid (FFA) levels / circulating total cholesterol (TC) levels / circulating triglycerides (TG) levels / levels of blood insulin / levels of blood leptin: AnK 10, 20, 40, Feno 250, Metf 300 mg/kg/day; for blood adiponectin levels / circulating free fatty acid (FFA) levels / circulating total cholesterol (TC) levels / circulating triglycerides (TG) levels / levels of blood insulin / levels of blood leptin: oral gavage once daily 4 weeks
Procedure: Animal studies were performed and approved under the guidelines of the Institutional Animal Care and Use Committee in Taiwan (12 Mar. 2015). […] After acclimatization for one week, all of the mice were randomly assigned into a control (CON) group and a high-fat diet (HFD) group. For the following 12 weeks, the CON group (n=9) received a control diet or a low-fat diet (Diet 12450B, Research Diets, Inc., New Brunswick, N.J., USA), while the HFD group (n=54) received a high-fat diet (Diet 12451, Research Diets, New Brunswick, N.J., USA). […] After HFD feeding for 8 weeks, the HFD group was randomly subdivided into six groups (n=9 per group) receiving different treatments and fed on HFD. […] The HF+AnK1, HF+AnK2, and HF+AnK3 groups are collectively termed AnK-treated HFD groups in the following examples. The CON mice were administered vehicle. All treatments were administered via oral gavage once daily. After administration for 4 weeks, all mice were fasted 12 hours, and blood was collected from the retro-orbital sinus under ether anesthesia. At the end of the experiment, the mice were sacrificed via carbon dioxide inhalation. Liver, adipose tissue, and skeletal muscle were collected and immediately stored at −80° C. for target gene analysis. A portion of the blood samples obtained from the retro-orbital sinus of fasted mice were immediately used to measure blood glucose levels using Sidekick glucose analyzer (YSI 1500, YSI Incorporated, Yellow Springs, USA) according to the glucose oxidase method. Heparin (30 units/mL, Sigma) was added into other portions of the blood samples. Plasma samples for the following analysis were prepared from these blood samples via centrifugation at 1600 g for 15 minutes at 4° C., followed by plasma separation within 30 minutes. Blood levels of triglycerides (TG), total cholesterol (TC), and free fatty acids (FFA) were determined using commercial assay kits in accordance with manufacturer's directions (Triglycerides-E test, Cholesterol-E test and FFA-C test, Wako Pure Chemical, Osaka, Japan). Blood levels of insulin, leptin, and adiponectin were measured by enzyme-linked immunosorbent assay (mouse insulin ELISA kit, Mercodia, Uppsala, Sweden; mouse leptin ELISA kit, Morinaga, Yokohama, Japan; mouse adiponectin ELISA kit, Crystal Chem International, Downers Grove, Ill., USA).

C=C(CC[C@@H](C)[C@H]1CC[C@H]2C3=C(C(=O)C[C@]12C)[C@@]1(C)CC[C@@H](O)[C@](C)(O)[C@@H]1C[C@@H]3O)C(C)C(=O)O (stereo partly drawn) [AnK, 3α,4β,7β-trihydroxy-4α-methylergosta-8,24(28)-dien-11-on-25S-26-oic acid]
mRNA levels of SREBP2 [1]: significantly decreased
mRNA levels of aP2 [2]: significantly decreased
mRNA levels of SREBP1c [3]: significantly decreased
expression levels of phospho-AMPK/total-AMPK ([4]; liver): significantly reversed
expression levels of phospho-AMPK/total-AMPK ([4]; skeletal muscle): significantly reversed
glucose-lowering effect compared with metformin ([5]; AnK 40 mg/kg body weight/day vs metformin 300 mg/kg/day): comparable to that of metformin
lowering of blood glucose levels ([5]; AnK at 10, 20, and 40 mg/kg body weight/day, vs HF group): 26.8-36.0%
decrease of circulating TG ([5]; AnK treatment (10, 20, 40 mg/kg/day), vs HF group): 28.5-32.8%
TG-lowering effect compared with fenofibrate ([5]; AnK treatment vs fenofibrate 250 mg/kg/day): comparable to the TG-lowering effect of fenofibrate
blood glucose levels ([5]; vs HF group): significantly reduced
blood adiponectin levels ([5]; vs HF group): markedly enhanced
circulating free fatty acid (FFA) levels ([5]; vs HF group): decreased
circulating total cholesterol (TC) levels ([5]; vs HF group): decreased
circulating triglycerides (TG) levels ([5]; vs HF group): decreased
levels of blood insulin ([5]; vs HF group): effectively reduced
levels of blood leptin ([5]; vs HF group): effectively reduced

CN(C)C(=N)N=C(N)N [Metf, metformin, reference compound]
mRNA levels of SREBP2 [1]: significantly decreased
mRNA levels of aP2 [2]: significantly decreased
mRNA levels of SREBP1c [3]: significantly decreased
expression levels of phospho-AMPK/total-AMPK ([4]; liver): significantly reversed
expression levels of phospho-AMPK/total-AMPK ([4]; skeletal muscle): significantly reversed
blood glucose levels ([5]; vs HF group): significantly reduced
blood adiponectin levels ([5]; vs HF group): markedly enhanced
circulating free fatty acid (FFA) levels ([5]; vs HF group): decreased
circulating total cholesterol (TC) levels ([5]; vs HF group): decreased
circulating triglycerides (TG) levels ([5]; vs HF group): decreased
levels of blood insulin ([5]; vs HF group): effectively reduced
levels of blood leptin ([5]; vs HF group): effectively reduced
